Converted amounts (≈) assume the structure as drawn. Where two headings read alike, the source gives them in different places.
What was measured:
human (hACC2) ACC2 = human (hACC2) ACC2 (Homo sapiens, UniProt O00763); test: In vitro Acetyl-CoA Carboxylase (ACC) inhibition assay (ADP-Glo), hACC2; type: biochemical
Protocol: The detailed procedure is as follows. […] 10 μL ADP glo reagent was added. […] 20 μL kinase detection reagent was added.
“NA” stands for “not assayed.”

C. albicans ATCC 90028 = test: Anti-Fungal (Candida) Activity Assay, broth microtiter MIC; type: cell-based; conditions: read-out: MIC C. albicans ATCC 90028
Protocol: (§1) Compounds of the present invention were evaluated in an Anti-Fungal Activity Assay. An exemplary procedure for the assay, which measures the susceptibility of various Candida species to anti-fungal compounds, follows. Compounds to be tested (including fluconazole and amphotericin B) were dissolved in DMSO to obtain a solution having a concentration of 1 mg/mL. […] All species were grown from frozen stock by directly plating on to freshly prepared Sabouraud Dextrose agar (BD, Difco) and incubated overnight in ambient air at 35° C. for 24 h. A direct suspension was prepared in RPMI 1640+MOPS (Lonza, Biowhittaker) by taking individual colonies from the overnight cultures using sterile swabs soaked in sterile saline. The concentration of the suspension was determined using pre-determined standard curves. […] Broth microtiter MIC challenge plates were prepared following CLSI guidelines (M27-A3, Vol. 28 No. 14). The original CLSI guidelines focused on reading Candida MICs after 48 h of incubation. As reading after only 24 h offers a clear advantage of patient care, QC limits are being established for all drugs at 24 h. That being said there are no known interpretive breakpoints for amphotericin B at 24 h and the current fluconazole interpretive breakpoints are based on a 48 h reading. The MIC for the test compounds were recorded at 48 h. All MIC determinations were achieved by visually comparing the growth found in the antibiotic challenged wells to that of the growth control.

C. krusei ATCC 6258 = test: as above; type: cell-based; conditions: Pichia kudriavzevii, read-out: MIC C. krusei ATCC 6258
Protocol: as §1

[1] = system: C. parapsilosis ATCC 22019; test: as above; type: cell-based; conditions: Lodderomyces parapsilosis, read-out: MIC C. parapsilosis ATCC 22019
Protocol: as §1

Botrtyis cinerea (Bc) = test: Growth inhibition assay of fungal pathogens; type: cell-based; conditions: 48 h, read-out: Concentration at 90% Inhibition Bc
Protocol: (§2) Compounds of the present invention were evaluated in a growth inhibition assay to determine the ability to control the growth of fungal pathogens, such as Botrtyis cinerea (Bc), Collectotrichum graminicola (Cg). Diplodia maydis (Dm), Fusarium moniliforme (Fm), Fusarium virguliforme (Fv), Phytophthora capsici (Pc), Rhizoctonia solani (Rs), and Septoria tritici (St). Compounds to be tested were dissolved in DMSO at 2.5 mg/ml to produce compound stock solutions (“stocks”). Stocks were diluted with DMSO by a five-fold dilution in a 96-well stock plate, and two sets of final concentrations of 50, 10, and 2 ppm or 2, 0.4, and 0.08 ppm were obtained in vitro. A set of positive controls was also prepared, with various concentrations of Soraphen (2, 0.4, and 0.08 ppm), Metalaxyl (1.1, 0.22, and 0.04 ppm), and Metconazole (2, 0.4, and 0.08 ppm or 0.2, 0.04, and 0.008 ppm) after the five-fold dilutions. Negative controls on each plate included 2% DMSO, water, and a blank (media+2% DMSO). Fungal spores were isolated from previously sub-cultured plates of Botrtyis cinerea (Bc). Collectotrichum graminicola (Cg). Diplodia maydis (Dm), Fusarium moniliforme (Fm), Fusarium virguliforme (Fv), Phytophthora capsici (Pc), and Septoria tritici (St). The isolated spores were diluted to individual concentrations with a 17% V8 liquid media. For Rhizoctonia solani (Rs) and Pythium irregulare, 1.5 mm mycelial plugs were used in place of spores and ¼ Potato Dextrose Broth (PDB) was used for dilution. The spore concentrations and plug sizes were based on growth curves generated at 48 hours for each pathogen. In a second 96-well plate, the spores or mycelial plugs, media, diluted compound solutions, and controls were combined. Once the compound was added, a true final concentration of compound in each well was measured by an OD600 reading, which adjusted for any compound precipitation that might have occurred in the well. Plate readings were repeated at both 24 and 48 hours. The blank negative control was used as a background subtraction. Additional visual ratings were performed at both 24 and 48 hours for checking on precipitation and confirming efficacy. Visual and OD600 ratings of the compounds at 48 hours were compared to the 2% DMSO negative control, and the percent of pathogen growth inhibition was determined based on those values.

[2] = system: Collectotrichum graminicola (Cg); test: Growth inhibition assay of fungal pathogens; type: cell-based; conditions: 48 h, read-out: Concentration at 90% Inhibition Cg
Protocol: as §2

Diplodia maydis (Dm) = test: Growth inhibition assay of fungal pathogens; type: cell-based; conditions: Stenocarpella maydis, 48 h, read-out: Concentration at 90% Inhibition Dm
Protocol: as §2

[3] = system: Fusarium moniliforme (Fm); test: Growth inhibition assay of fungal pathogens; type: cell-based; conditions: for IC90: Fusarium verticillioides, 48 h, read-out: Concentration at 90% Inhibition Fm
Protocol: as §2

[4] = system: Fusarium virguliforme (Fv); test: Growth inhibition assay of fungal pathogens; type: cell-based; conditions: 48 h
Protocol: as §2

[5] = system: Phytophthora capsici (Pc); test: Growth inhibition assay of fungal pathogens; type: cell-based; conditions: for IC90: Phytophthora capsici, read-out: Concentration at 90% Inhibition Pc
Protocol: as §2

Rhizoctonia solani (Rs) = test: Growth inhibition assay of fungal pathogens; type: cell-based; conditions: 48 h, read-out: Concentration at 90% Inhibition Rs
Protocol: as §2

Septoria tritici (St) = test: Growth inhibition assay of fungal pathogens; type: cell-based; conditions: for IC90: Zymoseptoria tritici, read-out: Concentration at 90% Inhibition St
Protocol: as §2

[6] = ATCC90028, 3 replicates, MIC recorded at 48 h
[7] = ATCC6258, 3 replicates, MIC recorded at 48 h
[8] = ATCC22019, 3 replicates, MIC recorded at 48 h
[9] = Table 4a, 48 hours, read-out: Concentration at 90% Inhibition Fv
[10] = Table 4b, 48 hours, read-out: Concentration at 90% Inhibition Fv
[11] = read-out: Concentration at 90% Inhibition Fv, Table 4a, 48 hours
[12] = read-out: Concentration at 90% Inhibition Fv, Table 4b, 48 hours

Sequence of human (hACC2) ACC2 (O00763 whole entry): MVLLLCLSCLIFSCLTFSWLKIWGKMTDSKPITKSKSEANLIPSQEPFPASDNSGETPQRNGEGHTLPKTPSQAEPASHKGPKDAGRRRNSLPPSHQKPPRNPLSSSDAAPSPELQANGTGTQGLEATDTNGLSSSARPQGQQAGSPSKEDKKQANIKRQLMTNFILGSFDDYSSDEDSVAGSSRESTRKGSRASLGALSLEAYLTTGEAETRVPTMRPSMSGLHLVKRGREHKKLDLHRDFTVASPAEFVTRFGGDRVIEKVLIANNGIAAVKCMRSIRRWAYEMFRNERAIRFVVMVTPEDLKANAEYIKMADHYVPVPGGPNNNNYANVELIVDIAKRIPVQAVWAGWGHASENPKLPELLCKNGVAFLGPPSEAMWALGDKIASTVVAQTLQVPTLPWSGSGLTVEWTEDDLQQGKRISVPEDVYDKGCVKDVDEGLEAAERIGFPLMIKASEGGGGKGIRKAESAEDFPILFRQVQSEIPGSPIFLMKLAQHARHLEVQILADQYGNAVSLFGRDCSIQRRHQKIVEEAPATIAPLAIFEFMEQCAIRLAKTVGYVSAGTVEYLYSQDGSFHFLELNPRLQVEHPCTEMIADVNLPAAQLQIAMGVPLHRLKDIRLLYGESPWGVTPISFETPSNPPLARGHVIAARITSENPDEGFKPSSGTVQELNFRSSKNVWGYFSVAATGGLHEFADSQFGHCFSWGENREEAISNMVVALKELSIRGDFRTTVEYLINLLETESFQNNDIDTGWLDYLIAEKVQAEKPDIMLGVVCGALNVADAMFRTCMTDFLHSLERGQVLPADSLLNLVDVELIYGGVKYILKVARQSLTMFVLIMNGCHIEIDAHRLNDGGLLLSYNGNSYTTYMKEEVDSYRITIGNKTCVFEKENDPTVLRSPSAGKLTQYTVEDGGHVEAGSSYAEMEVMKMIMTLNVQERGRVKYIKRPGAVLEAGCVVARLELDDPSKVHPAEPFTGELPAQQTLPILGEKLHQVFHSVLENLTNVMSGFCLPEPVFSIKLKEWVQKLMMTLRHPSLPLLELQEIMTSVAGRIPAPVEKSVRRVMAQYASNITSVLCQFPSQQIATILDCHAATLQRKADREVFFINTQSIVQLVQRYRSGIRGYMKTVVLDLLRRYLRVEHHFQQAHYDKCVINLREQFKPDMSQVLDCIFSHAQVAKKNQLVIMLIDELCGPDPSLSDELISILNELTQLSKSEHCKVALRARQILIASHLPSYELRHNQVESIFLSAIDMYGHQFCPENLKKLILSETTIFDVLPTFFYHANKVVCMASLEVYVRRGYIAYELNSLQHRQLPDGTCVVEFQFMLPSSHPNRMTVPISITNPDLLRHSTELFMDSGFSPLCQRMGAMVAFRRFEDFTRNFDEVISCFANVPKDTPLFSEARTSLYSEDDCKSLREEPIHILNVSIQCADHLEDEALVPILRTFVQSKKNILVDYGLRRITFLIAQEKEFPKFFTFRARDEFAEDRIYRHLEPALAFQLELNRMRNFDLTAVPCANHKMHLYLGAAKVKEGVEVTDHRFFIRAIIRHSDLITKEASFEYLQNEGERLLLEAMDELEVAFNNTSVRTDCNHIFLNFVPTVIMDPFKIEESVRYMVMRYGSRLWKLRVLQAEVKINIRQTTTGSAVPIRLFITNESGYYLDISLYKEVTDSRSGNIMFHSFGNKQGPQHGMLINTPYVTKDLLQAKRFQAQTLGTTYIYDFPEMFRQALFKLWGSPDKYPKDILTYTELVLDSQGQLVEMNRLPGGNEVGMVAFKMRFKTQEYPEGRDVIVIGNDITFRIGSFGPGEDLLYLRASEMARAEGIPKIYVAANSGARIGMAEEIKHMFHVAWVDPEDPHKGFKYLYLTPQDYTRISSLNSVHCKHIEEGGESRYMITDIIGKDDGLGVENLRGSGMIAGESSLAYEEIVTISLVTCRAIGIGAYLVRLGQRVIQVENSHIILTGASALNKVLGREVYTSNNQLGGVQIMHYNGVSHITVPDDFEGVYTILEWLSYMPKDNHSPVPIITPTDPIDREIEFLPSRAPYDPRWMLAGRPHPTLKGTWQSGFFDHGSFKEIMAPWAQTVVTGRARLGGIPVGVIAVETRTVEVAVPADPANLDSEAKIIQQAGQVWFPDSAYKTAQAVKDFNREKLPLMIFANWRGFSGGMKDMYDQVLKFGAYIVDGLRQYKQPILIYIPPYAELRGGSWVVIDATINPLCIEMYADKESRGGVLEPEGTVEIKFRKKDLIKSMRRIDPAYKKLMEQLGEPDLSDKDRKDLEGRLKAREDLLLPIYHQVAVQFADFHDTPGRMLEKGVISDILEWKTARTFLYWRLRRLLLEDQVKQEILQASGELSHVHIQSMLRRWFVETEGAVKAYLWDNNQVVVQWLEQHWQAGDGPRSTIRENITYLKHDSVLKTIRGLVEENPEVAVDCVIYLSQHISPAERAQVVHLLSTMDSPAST

Structure (SMILES)	IC50 (human (hACC2) ACC2) [nM]	IC90 (Botrtyis cinerea (Bc); Table 4a) [µg/mL]	IC90 (Botrtyis cinerea (Bc); Table 4b) [µg/mL]	IC90 ([2]; Table 4a) [µg/mL]	IC90 ([2]; Table 4b) [µg/mL]	IC90 (Diplodia maydis (Dm); Table 4a) [µg/mL]	IC90 (Diplodia maydis (Dm); Table 4b) [µg/mL]	IC90 (Rhizoctonia solani (Rs); Table 4a) [µg/mL]	IC90 (Rhizoctonia solani (Rs); Table 4b) [µg/mL]	MIC (C. albicans ATCC 90028; ATCC90028, 48 h) [µg/mL]	MIC (C. krusei ATCC 6258; ATCC6258, 48 h) [µg/mL]	MIC ([1]; ATCC22019, 48 h) [µg/mL]	IC90 [3] [µg/mL]	Concentration at 90% Inhibition Fm ([3]; Table 4b, 48 hours)	IC90 [4, 11] [µg/mL]	IC90 [4, 12] [µg/mL]	IC90 ([5]; 48 h, Table 4a) [µg/mL]	IC90 ([5]; 48 h, Table 4b) [µg/mL]	IC90 (Septoria tritici (St); 48 h, Table 4a) [µg/mL]	IC90 (Septoria tritici (St); 48 h, Table 4b) [µg/mL]	other results
COc1ccc(F)cc1[C@H](Cn1c(=O)n(C(C)(C)C(=O)NC(C)C)c(=O)c2c(C)c(-n3cccn3)sc21)O[C@H]1CC[C@@H](O)CC1 [Compound I-14, 2-(1-((R)-2-(5-fluoro-2-methoxyphenyl)-2-(((1s,4S)-4-hydroxycyclohexyl)oxy)ethyl)-5-methyl-2,4-dioxo-6-(1H-pyrazol-1-yl)-1,4-dihydro-thieno[2,3-d]pyrimidin-3(2H)-yl)-N-isopropyl-2-methylpropanamide]	3 to 10	0.4 (≈ 0.623 µM)	0.4 (≈ 0.623 µM)	> 50	> 50	2 (≈ 3.12 µM)	2 (≈ 3.12 µM)	2 (≈ 3.12 µM)	2 (≈ 3.12 µM)	–	–	–	–	–	–	–	–	–	–	–	MIC (C. albicans ATCC 90028; [6]): 0.25 to 1 µg/mL (≈ 0.39 to 1.56 µM); MIC (C. krusei ATCC 6258; [7]): 1.1 to 2 µg/mL (≈ 1.71 to 3.12 µM); MIC [1, 8]: 0.25 to 1 µg/mL (≈ 0.39 to 1.56 µM); IC90 ([3]; Table 4a, 48 hours): 0.08 µg/mL (≈ 0.125 µM); IC90 ([3]; Table 4b, 48 hours): 0.08 µg/mL (≈ 0.125 µM); IC90 [4, 9]: 2 µg/mL (≈ 3.12 µM); IC90 [4, 10]: 2 µg/mL (≈ 3.12 µM); IC90 ([5]; Table 4a, 48 hours): > 50 µg/mL; Concentration at 90% Inhibition Pc ([5]; Table 4b, 48 hours): D (“D” provided a compound concentration of >50 ppm at 90% inhibition of fungal pathogens); Concentration at 90% Inhibition St (Septoria tritici (St); Table 4b, 48 hours): D (“D” provided a compound concentration of >50 ppm at 90% inhibition of fungal pathogens); IC90 (Septoria tritici (St); Table 4a, 48 hours): > 50 µg/mL
COc1ccc(F)cc1[C@H](Cn1c(=O)n(C(C)(C)C(=O)N2CCCC2)c(=O)c2c(C)c(-n3cccn3)sc21)O[C@H]1CC[C@@H](O)CC1 [Compound I-15, 1-((R)-2-(5-fluoro-2-methoxyphenyl)-2-(((1s,4S)-4-hydroxycyclohexyl)oxy)ethyl)-5-methyl-3-(2-methyl-1-oxo-1-(pyrrolidin-1-yl)pro-pan-2-yl)-6-(1H-pyrazol-1-yl)thieno[2,3-d]pyrimidine-2,4(1H,3H)-dione]	3 to 10	2 (≈ 3.06 µM)	2 (≈ 3.06 µM)	> 50	10 (≈ 15.3 µM)	> 50	10 (≈ 15.3 µM)	> 50	10 (≈ 15.3 µM)	–	–	–	–	–	–	–	–	–	–	–	MIC (C. albicans ATCC 90028; [6]): 0.25 to 1 µg/mL (≈ 0.382 to 1.53 µM); MIC (C. krusei ATCC 6258; [7]): 1.1 to 2 µg/mL (≈ 1.68 to 3.06 µM); MIC [1, 8]: 0.25 to 1 µg/mL (≈ 0.382 to 1.53 µM); IC90 ([3]; Table 4a, 48 hours): 0.4 µg/mL (≈ 0.612 µM); IC90 ([3]; Table 4b, 48 hours): 0.4 µg/mL (≈ 0.612 µM); IC90 [4, 9]: 2 µg/mL (≈ 3.06 µM); IC90 [4, 10]: 2 µg/mL (≈ 3.06 µM); IC90 ([5]; Table 4a, 48 hours): > 50 µg/mL; Concentration at 90% Inhibition Pc ([5]; Table 4b, 48 hours): D (“D” provided a compound concentration of >50 ppm at 90% inhibition of fungal pathogens); Concentration at 90% Inhibition St (Septoria tritici (St); Table 4b, 48 hours): D (“D” provided a compound concentration of >50 ppm at 90% inhibition of fungal pathogens); IC90 (Septoria tritici (St); Table 4a, 48 hours): > 50 µg/mL
COc1ccccc1[C@H](Cn1c(=O)n(C(C)(C)C(=O)NC(C)C)c(=O)c2c(C)c(-n3cccn3)sc21)OC(C)C [Compound I-17, (R)-2-(l-(2-isopropoxy-2-(2-methoxyphenyl)ethyl)-5-methyl-2,4-dioxo-6-(H-pyrazol-1-yl)-1,4-dihydrothieno[2,3-d]pyrimidin-3(2H)-yl)-N-isopropyl-2-methylpropanamide]	3 to 10	2 (≈ 3.52 µM)	2 (≈ 3.52 µM)	> 50	10 (≈ 17.6 µM)	2 (≈ 3.52 µM)	2 (≈ 3.52 µM)	> 50	> 50	0.25 to 1 (≈ 0.44 to 1.76 µM)	0.25 to 1 (≈ 0.44 to 1.76 µM)	0.25 to 1 (≈ 0.44 to 1.76 µM)	0.4 (≈ 0.705 µM)	A (“A” provided a compound concentration of 0.4 ppm at 90% inhibition of fungal pathogens)	0.4 (≈ 0.705 µM)	0.4 (≈ 0.705 µM)	> 50	> 50	> 50	> 50	–
COc1ccccc1[C@H](Cn1c(=O)n(C(C)(C)C(=O)N2CCCCC2)c(=O)c2c(C)c(-n3cccn3)sc21)OC(C)C [Compound I-19, (R)-1-(2-isopropoxy-2-(2-methoxyphenyl)ethyl)-5-methyl-3-(2-methyl-1-oxo-1-(piperidin-1-yl)propan-2-yl)-6-(H-pyrazol-1-yl)thieno[2,3-d]pyrimidine-2,4(1H,3H)-dione]	10 to 40	0.4 (≈ 0.674 µM)	0.4 (≈ 0.674 µM)	10 (≈ 16.8 µM)	2 (≈ 3.37 µM)	2 (≈ 3.37 µM)	2 (≈ 3.37 µM)	2 (≈ 3.37 µM)	2 (≈ 3.37 µM)	> 4.1	2.1 to 4 (≈ 3.54 to 6.74 µM)	> 4.1	0.08 (≈ 0.135 µM)	AA (“AA” provided a compound concentration of 0.08 ppm at 90% inhibition of fungal pathogens)	0.4 (≈ 0.674 µM)	0.4 (≈ 0.674 µM)	> 50	> 50	> 50	> 50	–
COc1ccccc1[C@H](Cn1c(=O)n(C(C)(C)C(=O)NC(C)C)c(=O)c2c(C)c(-n3cccn3)sc21)OCC(C)C [Compound I-21, (R)-2-(1-(2-isobutoxy-2-(2-methoxyphenyl)ethyl)-5-methyl-2,4-dioxo-6-(1H-pyrazol-1-yl)-1,4-dihydrothieno[2,3-d]pyrimidin-3(2H)-yl)-N-isopropyl-2-methylpropanamide]	10 to 40	2 (≈ 3.44 µM)	2 (≈ 3.44 µM)	> 50	10 (≈ 17.2 µM)	10 (≈ 17.2 µM)	2 (≈ 3.44 µM)	2 (≈ 3.44 µM)	2 (≈ 3.44 µM)	0.25 to 1 (≈ 0.43 to 1.72 µM)	0.25 to 1 (≈ 0.43 to 1.72 µM)	0.25 to 1 (≈ 0.43 to 1.72 µM)	0.4 (≈ 0.688 µM)	A (“A” provided a compound concentration of 0.4 ppm at 90% inhibition of fungal pathogens)	> 50	10 (≈ 17.2 µM)	> 50	> 50	> 50	> 50	–

Source: patent US10941158B2, “Pyrazole ACC inhibitors and uses thereof” (Gilead Apollo, LLC, priority 2015, dated 2021)
